# Measured values reported in US6403810B2, “Thiophene derivatives” (Hoffmann-La Roche Inc., priority 2000, dated 2002).
# What was measured:
# [1] = system: rat elastase-induced emphysema; assay: Repair of alveoli in elastase-induced emphysema (rat model); type: in vivo, male Sprague Dawley rats; conditions: oral, once daily starting 21 days post elastase injury, morphometric analysis of lung sections
# Experimental: A RAR selective agonist according to the invention was evaluated for its effects on alveolar repair in a rat model for rat elastase-induced emphysema in accordance to D. Massaro et al. Nature Medicine1997, 3, 675. Animals were divided into treatment groups of approximately eight. Lung inflammation and alveolar damage was induced in male Sprague Dawley rats by a single instillation of pancreatic elastase(porcine derived, Calbiochem) 2 U/gram body mass. Three weeks post injury, all-trans retinoic acid or RAR agonist test compound was dissolved in dimethyl-sulfoxide (20 mg/ml) and stored at −20 C. Fresh working stocks were prepared daily by dilution in PBS to a final concentration of 2mg/ml. Animals were dosed once daily with the retinoid by intraperitoneal injection or orally, starting 21 days post injury. Control groups were challenged with elastase and 21 days later treated with Vehicle (DMSO/PBS) for 14 days. Animals were sacrificed 24 hours after the last dose by exsanguination under deep anesthesia.
# The lungs were inflated with 10% neutral buffered formalin by intratracheal instillation at a constant rate (1 ml/gram body mass/min). The lung was excised and immersed in fixative for 24 hours prior to processing. Standard methods were used to prepare 5 μm paraffin sections. Sections were stained with Hematoxylin and Eosin (H%E). Computerized Morphometric analysis was performed to determine the average alveolar size and alveolar number.
melting point,Compound,% repair area ([1]; dose 0.0001 mg/kg),% repair area ([1]; dose 0.001 mg/kg),% repair area ([1]; dose 0.01 mg/kg),% repair area ([1]; dose 0.1 mg/kg)
,"CCCCCCc1cc2c(cc1/C=C/c1ccc(C(=O)O)s1)C(C)(C)CCC2(C)C [Example 9, (E)-5-[2-(3-Hexyl-5,5,8,8-tetramethyl-5,6,7,8-tetrahydro-naphthalen-2-yl)-vinyl]-thiophene-2-carboxylic Acid]",38%,42%,18%,42%
176 to 177 °C,"CCCCCc1cc2c(cc1/C=C/c1ccc(C(=O)O)s1)C(C)(C)CCC2(C)C [Example 9.2, (E)-5-[2-(3-pentyl-5,5,8,8-tetramethyl-5,6,7,8-tetrahydro-naphthalen-2-yl)-vinyl]thiophene-2-carboxylic acid]",,,,
